Source: paper PMC10461232, “Structure-Based Design of Transport-Specific Multitargeted One-Carbon Metabolism Inhibitors in Cytosol and Mitochondria” (Journal of Medicinal Chemistry, 2023)

Key:
[1] = system: KB tumor cells; assay: Metabolite rescue of growth inhibition in KB tumor cells; assay type: cell-based, human; conditions: serine- and glycine-free medium, adenosine 60 μM
Excerpt: To confirm the targeted pathways for the pyrrolo[3,2-d]pyrimidine antifolates in tumor cells, we treated KB human tumor cells cultured in serine- and glycine-free media with the pyrrolo[3,2-d]pyrimidine compounds (4–9, 11–16) to test for the rescue by added nucleosides and glycine. Results were compared to those for AGF94, a pyrrolo[2,3-d]pyrimidine antifolate that inhibits GARFTase without effects on SHMT2,[69] and to compounds 1, 2, and 3, documented inhibitors of mitochondrial C1 metabolism and de novo purine biosynthesis in human tumor cells.[36] The results are shown in Figures 15 and S11 (Supplemental Information). […]
For some experiments with KB tumor cells, cells were cultured in serine-, glycine-, and folate-free RPMI 1640 (Fisher Scientific), supplemented with 10% dialyzed fetal bovine serum, antibiotics, 25 nM leucovorin, and 2 mM L-glutamine. In vitro growth inhibition was measured (above), without additions, or in the presence of folic acid (200 nM), or thymidine (10 μM), adenosine (60 μM), 5-aminoimidazole-4-carboxamide (AICA) (320 μM), and/or glycine (130 μM) to establish the inhibitory effects of the antifolate drugs on de novo thymidylate synthase versus de novo purine nucleotide biosynthesis (GARFTase and AICARFTase) or mitochondrial C1 metabolism at SHMT2.[36],[63],[64],[68],[69] […]

[2] = biological target: T1, SHMT1 (Homo sapiens, UniProt P34896); assay: SHMT1 inhibition assay coupled with MTHFD2, Ki; assay type: biochemical; conditions: purified His-SHMT1, 50 μM THF, 25 °C; mean (SD), at least 3 replicates
T1 construct: full-length SHMT1 with an N-terminal His6-tag; made in house; host or cells: E. coli Rosetta (DE3)pLysS
T1 sequence (P34896 1-483): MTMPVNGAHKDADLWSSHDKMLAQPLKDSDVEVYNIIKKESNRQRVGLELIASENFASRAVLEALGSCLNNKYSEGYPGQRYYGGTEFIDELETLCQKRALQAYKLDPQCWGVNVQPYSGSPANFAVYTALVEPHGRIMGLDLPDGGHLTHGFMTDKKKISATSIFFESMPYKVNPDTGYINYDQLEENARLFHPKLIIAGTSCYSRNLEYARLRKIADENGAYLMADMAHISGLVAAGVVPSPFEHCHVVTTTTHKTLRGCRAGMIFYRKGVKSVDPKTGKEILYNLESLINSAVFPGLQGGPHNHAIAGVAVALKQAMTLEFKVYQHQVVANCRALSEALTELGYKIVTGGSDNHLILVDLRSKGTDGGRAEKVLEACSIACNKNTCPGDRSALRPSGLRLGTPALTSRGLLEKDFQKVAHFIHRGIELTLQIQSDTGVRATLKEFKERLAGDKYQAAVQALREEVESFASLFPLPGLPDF
Method: Kinetic measurements were recorded in triplicate using a flat, black-bottom, black-walled 96-well plate (Greiner Bio-One, 655900) and a BioTek Synergy Neo2 Plate Reader. […] To assay SHMT1 or SHMT2 (SHMT1/2) enzymes, a coupled reaction with His-MTHFD2 in 200-fold molar excess was used where the production of NADH was monitored by fluorescence with excitation at 360 nm and emission at 470 nm at 25 °C. The reactions contained 5 nM His-SHMT1/2, 50 μM THF, 20 mM serine, 10 μM His-MTHFD2, 2.5 mM NAD^+, and a range of inhibitor concentrations (final concentrations). The reactions were performed in buffer containing 20 mM sodium phosphate, pH 7.5, 100 mM KCl, 0.2 mM EDTA, and 5 mM β-Me. A BioTek Synergy Neo2 Plate Reader was used to record kinetic measurements in triplicate in a UV-transparent 96-well plate (Costar 3635) for GARFTase and AICARFTase assays and a black-well, black-bottom 96-well plate (Corning 3603). To calculate IC50 values for each inhibitor, initial velocities were graphed as a function of inhibitor concentrations and fit with a three-parameter nonlinear regression (GraphPad Prism 8.0). The equation [Ki = IC50/([S]/KM + 1)] was used to convert IC50’s to Ki values.

[3] = biological target: T2, SHMT2 (Homo sapiens, UniProt P34897); assay: SHMT2 inhibition assay coupled with MTHFD2, Ki; assay type: biochemical; conditions: purified His-SHMT2, 50 μM THF, 25 °C; mean (SD), at least 3 replicates
T2 construct: made in house; host or cells: E. coli Rosetta (DE3)pLysS
T2 sequence (P34897 30-504): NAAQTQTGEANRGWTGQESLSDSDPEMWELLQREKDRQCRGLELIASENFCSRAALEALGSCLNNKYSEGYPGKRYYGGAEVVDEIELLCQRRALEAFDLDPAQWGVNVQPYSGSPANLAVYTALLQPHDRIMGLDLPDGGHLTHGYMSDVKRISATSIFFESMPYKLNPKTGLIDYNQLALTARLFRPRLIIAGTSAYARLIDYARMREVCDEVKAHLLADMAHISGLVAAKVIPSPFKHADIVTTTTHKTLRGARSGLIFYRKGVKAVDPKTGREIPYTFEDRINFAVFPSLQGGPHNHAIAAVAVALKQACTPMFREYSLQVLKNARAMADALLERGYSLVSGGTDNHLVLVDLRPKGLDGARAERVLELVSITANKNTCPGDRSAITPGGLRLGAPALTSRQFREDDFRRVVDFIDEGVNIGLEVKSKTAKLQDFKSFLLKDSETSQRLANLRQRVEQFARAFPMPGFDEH
Method: (§1) MTHFD2 activities were assayed by a reaction with methylene THF and NAD^+. NADH production was measured by fluorescence (excitation 340 nm, emission 480 nm). Reaction conditions included 100 nM MTHFD2, 5 μM methylene THF, and concentrations of small-molecule inhibitor ranging from 0.02 nM to 2000 nM; NAD^+ (2.5 mM) was added to initiate the reaction. The reaction buffer consisted of 50 mM Tris-HCl, pH 7.5, 250 mM NaCl, 5 mM magnesium chloride, 5% glycerol, and 0.5 mM TCEP. […] To assay SHMT1 or SHMT2 (SHMT1/2) enzymes, a coupled reaction with His-MTHFD2 in 200-fold molar excess was used where the production of NADH was monitored by fluorescence with excitation at 360 nm and emission at 470 nm at 25 °C. The reactions contained 5 nM His-SHMT1/2, 50 μM THF, 20 mM serine, 10 μM His-MTHFD2, 2.5 mM NAD^+, and a range of inhibitor concentrations (final concentrations). The reactions were performed in buffer containing 20 mM sodium phosphate, pH 7.5, 100 mM KCl, 0.2 mM EDTA, and 5 mM β-Me. […] To calculate IC50 values for each inhibitor, initial velocities were graphed as a function of inhibitor concentrations and fit with a three-parameter nonlinear regression (GraphPad Prism 8.0). The equation [Ki = IC50/([S]/KM + 1)] was used to convert IC50’s to Ki values.

[4] = biological target: T3, human GARFTase (Homo sapiens, UniProt P22102); assay: GARFTase inhibition assay, Ki (10-formyl THF to THF, absorbance 298 nm); assay type: biochemical; conditions: purified His-GARFTase, 40 μM 10-formyl THF, 37 °C; mean (SD), at least 3 replicates
T3 construct: formyltransferase domain of human GARFTase (residues 808–1010); made in house; host or cells: E. coli Rosetta (DE3)pLysS
T3 sequence (P22102 808-1010): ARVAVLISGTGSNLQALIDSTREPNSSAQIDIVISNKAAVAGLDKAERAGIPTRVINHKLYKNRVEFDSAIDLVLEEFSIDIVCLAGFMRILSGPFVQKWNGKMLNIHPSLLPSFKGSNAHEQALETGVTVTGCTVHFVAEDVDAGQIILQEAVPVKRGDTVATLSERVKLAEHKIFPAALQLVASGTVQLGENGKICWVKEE

[5] = system: RT16 (FRα) CHO cells; conditions: classic antifolates, CHO cells expressing human FRα; previously published; cited from earlier work
[6] = biological target: T4, human ATIC (Homo sapiens, UniProt P31939); assay: AICARFTase (ATIC) inhibition assay, Ki; assay type: biochemical; conditions: purified His-ATIC, AICARFTase activity, 50 μM 10-formyl THF, 25 °C; mean (SD), at least 3 replicates
T4 construct: N-terminal His6-tagged full-length human ATIC; made in house; host or cells: E. coli Rosetta (DE3)pLysS
Method: The cells were grown at 37 °C in 1 L cultures of LB media containing […] and […] until OD600 reached 0.6. Protein expression was induced by the addition of isopropyl β-D1-thiogalactopyranoside (IPTG, 500 μM).
His-ATIC was purified by Ni-NTA chromatography (Gold Biotechnology).[36] […] His-ATIC was eluted in 1 column volume fractions, 5 times with buffer containing 300 mM imidazole, 25 mM Tris-HCl, pH 7.5, 300 mM NaCl, and 5 mM β-Me. Size exclusion chromatography on a Superdex 200 16/60 (GE Healthcare) column was used for final purification using 20 mM Tris-HCl, pH 7.5, 150 mM NaCl, 50 mM KCl, 5 mM EDTA, and 5 mM dithiothreitol.
as §1

[7] = system: PC43-10 (RFC) CHO cells; conditions: classic antifolates, CHO cells expressing human RFC; previously published; cited from earlier work
[8] = system: KB (RFC/PCFT/FRα) cells; assay: Growth inhibition, KB nasopharyngeal carcinoma cells; assay type: cell-based, human; conditions: Homo sapiens, KB, folate-free RPMI 1640, 2 nM leucovorin, mean (SE)
Method: The CHO cells were cultured in α-minimal essential medium (MEM) supplemented with 10% bovine calf serum (Fisher Scientific), penicillin (1000 U/mL)/streptomycin (1000 μg/mL), and 2 mM L-glutamine at 37 °C with 5% CO2. All of the R2 transfected cells (PC43-10, RT16, R2/PCFT4) were cultured in complete α-MEM media plus 1 mg/mL G418. Prior to the cytotoxicity assays (see below), RT16 and D4 cells were cultured for 3 days in complete folate-free RPMI 1640 (without added folate), and R2/PCFT4 and R2 cells were cultured in complete folate-free RPMI 1640 supplemented with dialyzed fetal bovine serum (Fisher Scientific) and 25 nM leucovorin plus 1 mg/mL G418. KB cells were routinely cultured in folate-free RPMI 1640 medium, supplemented with 10% fetal bovine serum (Fisher Scientific), penicillin-streptomycin solution, and 2 mM L-glutamine at 37 °C with 5% CO2.
For growth inhibition studies, cells (CHO, KB) were plated in 96-well dishes (∼2500–5000 cells/well, total volume of 200 μL medium) over a range of antifolate concentrations.[69],[77] The medium was folate-free RPMI 1640 with 10% dialyzed serum and antibiotics supplemented with 25 nM leucovorin for experiments with R2, PC43-10, and R2/PCFT4 cells. For experiments with RT16, D4, and KB cells, cells were cultured in folate-free RPMI medium with 10% dialyzed fetal bovine serum and antibiotics; the medium was supplemented with 2 nM leucovorin. […] Incubations were routinely for up to 96 h. Viable cells (reflecting cell viability) were assayed with Cell Titer Blue reagent (Promega, Madison, WI), with fluorescence measured (590 nm emission, 560 nm excitation) with a fluorescence plate reader.

[9] = system: D4 (FRβ) CHO cells; conditions: classic antifolates, CHO cells expressing human FRβ; previously published; cited from earlier work

T4 sequence (P31939 whole entry): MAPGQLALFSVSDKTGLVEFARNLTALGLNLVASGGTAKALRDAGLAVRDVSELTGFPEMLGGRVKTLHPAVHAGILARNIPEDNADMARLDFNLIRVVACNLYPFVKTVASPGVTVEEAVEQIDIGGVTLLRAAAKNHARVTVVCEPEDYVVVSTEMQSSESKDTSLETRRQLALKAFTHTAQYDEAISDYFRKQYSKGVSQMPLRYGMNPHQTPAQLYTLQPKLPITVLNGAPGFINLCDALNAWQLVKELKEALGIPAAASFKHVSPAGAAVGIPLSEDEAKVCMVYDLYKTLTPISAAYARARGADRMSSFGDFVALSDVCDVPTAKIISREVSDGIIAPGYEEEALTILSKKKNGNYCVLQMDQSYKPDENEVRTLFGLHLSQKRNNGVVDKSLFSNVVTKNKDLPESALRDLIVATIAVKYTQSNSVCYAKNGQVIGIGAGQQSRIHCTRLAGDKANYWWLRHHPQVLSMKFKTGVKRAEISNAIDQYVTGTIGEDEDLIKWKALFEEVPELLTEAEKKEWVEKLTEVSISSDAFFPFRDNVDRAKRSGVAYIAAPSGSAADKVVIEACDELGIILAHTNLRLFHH

Row | Ki [2] [µM] | Ki [3] [µM] | Ki [4] [µM] | Ki [6] [µM] | IC50 [8] [µM] | Compound | effect of adenosine alone on growth inhibition [1] | IC50 [5] [µM] | IC50 [7] [µM] | IC50 [9] [µM]
1 | – | – | – | – | – | Nc1nc2[nH]c(CCCc3ccc(C(=O)N[C@@H](CCC(=O)O)C(=O)O)s3)cc2c(=O)[nH]1 [AGF94, (S)-2-({5-[3-(2-amino-4-oxo-4,7-dihydro-3H-pyrrolo[2,3-d]pyrimidin-6-yl)-propyl]-thiophene-2-carbonyl}-amino)-pentanedioic acid] | completely reversed | – | – | –
2 | > 200 | > 200 | > 150 | > 200 | 0.00047 | C#CCC(Cc1cnc2nc(N)nc(N)c2n1)c1ccc(C(=O)N[C@@H](CCC(=O)O)C(=O)O)cc1 (stereo partly drawn) [PDX, N-(4-{1-[(2,4-diaminopteridin-6-yl)methyl]but-3-yn-1-yl}benzoyl)-L-glutamic acid] | – | 0.043 | 0.00069 | 0.0025
3 | > 200 | > 200 | – | – | – | Nc1nc2[nH]cc(CCc3ccc(C(=O)N[C@@H](CCC(=O)O)C(=O)O)cc3)c2c(=O)[nH]1 [PMX, N-{4-[2-(2-amino-3,4-dihydro-4-oxo-7H-pyrrolo[2,3-d]pyrimidin-5-yl)ethyl]benzoyl}-L-glutamic acid] | – | – | – | –

Row | Compound | Ki [2] [µM] | Ki [3] [µM] | Ki [4] [µM] | Ki [6] [µM] | IC50 [8] [µM] | effect of adenosine alone on growth inhibition [1] | IC50 [5] [µM] | IC50 [7] [µM] | IC50 [9] [µM]
4 | CN(Cc1cnc2nc(N)nc(N)c2n1)c1ccc(C(=O)N[C@@H](CCC(=O)O)C(=O)O)cc1 [MTX, methotrexate] | > 200 | 98 ± 17 | – | – | – | – | – | – | –
